From patent USRE38132E1, “Phenylpyrrolidines, phenylimidazolidines,3-phenyl-1,3-oxizolidines and 3-phenyl-1,3-thiazolidines and their use in the treatment of inflammatory disease” (Boehringer Ingelheim Pharmaceuticals, Inc., priority 1997, dated 2003)
Like-named read-outs stand apart in the source and are kept apart here. One block for each compound: values may come before it.

Assays:
[1] = test system: cell bound form of LFA-1 (CD18, CD11a) with ICAM-1, SKW3 cells; experiment: Inhibition of SKW3 cell binding to ICAM-1 (PMA-stimulated); type: cell-based, human; conditions: Homo sapiens, read-out: Assay to Detect SKW3 Cells Binding to ICAM IC50
Method in brief: (§1)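 Compound-treated, PMA-stimulated human T-cell line SKW3 (50 μg/mL PMA final) allowed to adhere for 2 h at 37° C to wells coated with sICAM-1 at 40 μg/mL or fibronectin at 100 μg/mL. After gentle RPMI wash, 50% inhibition concentration or range reported in μM.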

[2] = test system: cell bound fibronectin receptor (VLA4) with fibronectin, SKW3 cells; experiment: Inhibition of SKW3 cell binding to fibronectin (selectivity counter-assay); type: cell-based, human
Method in brief: as §1

[3] = test system: LFA-1 dependent aggregation of JY cells; experiment: JY cell homotypic aggregation assay (PMA-stimulated); type: cell-based, human; conditions: Homo sapiens
Method in brief: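 Homotypic aggregation of EBV-transformed JY cells, stimulated by phorbol myristate acetate ([…]), scored visually over time in compound presence at 2·10^5 cells/well in serum-supplemented RPMI 1640. Result given as μM concentration or range inhibiting binding by 50%.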

[4] = test system: allogeneic cell transplant response, popliteal lymph node; experiment: In vivo allogeneic cell transplant model (popliteal lymph node weight); conditions: Mus musculus, po; mice, per os, dose at which 50% inhibition is observed; read-out: Allogeneic Cell Transplantation Assay ACT ED50
Text: In vivo: Allogeneic Cell Transplant Model Purpose of Assay: The ability of cells to recognize other cells from self or from another genetically different individual (non-self) is an important property in maintaining the integrity of tissue and organ structure. The allogeneic cell transplant response is an important model for studies of transplant rejection and immunocompetence. This T-cell-mediated immune response can be induced in adult mice by the injection of lymphocytes from a histoincompatible mouse strain into the footpad . This response is characterized by T-cell proliferation which is limited to the popliteal lymph node that receives drainage from the injected footpad area. No in vitro system can completely duplicate this in vivo response. Thus, this animal model can be used to assess the ability of a test compound to suppress transplant rejection. Description of Assay Protocol: Experiments are conducted using male or female mice (20-26 grams). Any histoincompatible mouse strains suffice for donor and recipient populations. Typically DBA mice are used as donors and […] mice are used as recipients. A minimum of 1 week stabilization and conditioning period is required before use during which time the animals are maintained in accordance with the Animal Resource Center S.O.P. Each study utilizes 36 recipient mice divided into groups of 6. The tests last approximately four days. Donor mice are sacrificed by CO2 asphyxiation and spleens are removed and made into a cell suspension. The cells (1.0·10^7/metatarsal in 0.05 mL) are injected intra dermal (according to standard protocol) into the dorsal metatarsal skin of recipient mice. Four days later, the animals are sacrificed by CO2 asphyxiation and the popliteal nodes are removed and weighed. Groups of mice receiving putative immunosuppressive agents are dosed subcutaneously, intraperitoneally or orally one hour prior to cell injection and daily thereafter according to standard protocol. Student's T-test was used to determine significant differences between popliteal lymph nodes of groups of untreated mice and those mice treated with putative immunosuppressive agents (see: Kroczek, R. A.; Black, C. D. V.; Barbet, […]. Immunology, 1987, 139, 3597). Data are reported as the dose at which 50% inhibition is observed and the manner in which the compound was administered. In Table 23, the following legends are applicable: ^and=not determined. ^bpercent inhibition at 160 μg/mL. ^cno inhibition observed up to highest dose. Exact quantification not always possible due to intrinsic toxicity of compound (see MTT result). ^[…] inhibition (concentration in μM ). ^eapproximated from incomplete dose-response curve. ^fnot determined; compound is a synthesis intermediate.

[5] = test system: SKW3 cells
[6] = target: T1, interaction of ICAM-1 with the Leukointegrin CD18/CD11a (LFA-1) (Homo sapiens, UniProt P05107+P20701); experiment: Assay to determine inhibition of LFA-1 binding to ICAM-1 (immunopurified LFA-1 on plate-bound sICAM-1, ELISA readout); conditions: values marked e approximated from incomplete dose-response curve
T1 construct: endogenous in cells; sICAM-1: made in house, secreted from transfected CHO DUX cells
T1 sequence (P20701 26-1170): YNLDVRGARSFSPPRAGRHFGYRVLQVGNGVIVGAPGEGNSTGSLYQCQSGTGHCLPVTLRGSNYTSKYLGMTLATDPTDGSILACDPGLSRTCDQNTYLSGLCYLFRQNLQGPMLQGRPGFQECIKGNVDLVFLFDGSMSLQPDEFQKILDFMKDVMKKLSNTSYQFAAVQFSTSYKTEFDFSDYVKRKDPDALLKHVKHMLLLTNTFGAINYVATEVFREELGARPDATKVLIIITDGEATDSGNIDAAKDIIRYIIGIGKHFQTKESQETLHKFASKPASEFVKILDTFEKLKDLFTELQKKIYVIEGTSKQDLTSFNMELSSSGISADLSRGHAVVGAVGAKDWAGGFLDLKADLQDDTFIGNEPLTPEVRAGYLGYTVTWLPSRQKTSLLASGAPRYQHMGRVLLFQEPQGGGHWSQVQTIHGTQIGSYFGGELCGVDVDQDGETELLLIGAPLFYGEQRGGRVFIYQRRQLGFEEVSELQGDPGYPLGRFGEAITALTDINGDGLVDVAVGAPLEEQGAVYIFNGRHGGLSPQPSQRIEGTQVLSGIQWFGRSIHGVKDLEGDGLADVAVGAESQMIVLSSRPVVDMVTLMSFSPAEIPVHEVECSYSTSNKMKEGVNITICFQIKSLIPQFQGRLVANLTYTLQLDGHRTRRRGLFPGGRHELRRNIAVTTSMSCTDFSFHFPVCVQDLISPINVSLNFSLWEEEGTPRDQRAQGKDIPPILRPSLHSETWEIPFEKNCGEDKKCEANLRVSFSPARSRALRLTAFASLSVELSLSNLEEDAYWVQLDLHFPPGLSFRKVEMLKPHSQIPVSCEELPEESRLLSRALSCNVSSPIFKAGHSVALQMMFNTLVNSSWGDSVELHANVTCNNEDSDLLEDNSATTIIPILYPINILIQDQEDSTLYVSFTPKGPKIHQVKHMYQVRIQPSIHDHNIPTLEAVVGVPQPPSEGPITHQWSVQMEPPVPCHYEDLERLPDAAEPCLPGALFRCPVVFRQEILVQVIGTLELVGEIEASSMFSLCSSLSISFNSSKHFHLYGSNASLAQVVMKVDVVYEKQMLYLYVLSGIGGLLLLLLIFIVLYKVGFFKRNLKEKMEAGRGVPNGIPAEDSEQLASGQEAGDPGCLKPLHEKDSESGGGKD
T1 sequence (P05107 23-769): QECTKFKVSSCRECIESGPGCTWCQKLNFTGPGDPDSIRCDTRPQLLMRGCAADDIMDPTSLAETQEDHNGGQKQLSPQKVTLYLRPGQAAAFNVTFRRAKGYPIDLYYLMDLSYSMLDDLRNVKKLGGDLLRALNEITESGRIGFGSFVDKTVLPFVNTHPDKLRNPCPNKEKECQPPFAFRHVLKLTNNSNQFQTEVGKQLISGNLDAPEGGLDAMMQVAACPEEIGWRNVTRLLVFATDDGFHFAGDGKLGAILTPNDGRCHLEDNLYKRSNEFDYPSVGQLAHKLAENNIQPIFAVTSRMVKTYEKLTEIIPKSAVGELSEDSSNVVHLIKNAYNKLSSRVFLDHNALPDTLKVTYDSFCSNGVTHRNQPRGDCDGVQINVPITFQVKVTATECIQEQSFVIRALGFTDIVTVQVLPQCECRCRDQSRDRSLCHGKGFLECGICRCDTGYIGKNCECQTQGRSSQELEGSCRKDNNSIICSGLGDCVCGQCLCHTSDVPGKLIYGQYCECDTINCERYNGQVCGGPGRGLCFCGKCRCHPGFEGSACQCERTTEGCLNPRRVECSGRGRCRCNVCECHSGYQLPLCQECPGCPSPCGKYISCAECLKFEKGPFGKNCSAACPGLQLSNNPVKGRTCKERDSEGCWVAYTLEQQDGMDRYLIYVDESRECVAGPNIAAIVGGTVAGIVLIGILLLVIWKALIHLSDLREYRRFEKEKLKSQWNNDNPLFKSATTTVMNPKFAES

Compound: CN1C(=O)N(c2cc(Cl)cc(Cl)c2)C(=O)[C@@]1(C)Cc1ccc(Br)cc1 [Example 271]
- IC50 ([1]; SKW3): 3000 nM
- Assay to Detect SKW3 Cells Binding to FIBRONECTIN IC50 ([2]; No inh = no inhibition observed up to highest dose, exact quantification not always possible due to intrinsic toxicity): No inh^c
- IC50 [3]: 100 nM
- ED50 [4]: ~20 mg/kg
- Cellular Toxicity Assay MTT LD50 [5]: 250 to 500 µM

Compound: CC(=O)N1C(=O)N(c2cc(Cl)cc(Cl)c2)C(=O)[C@@]1(C)Cc1ccc(-c2cccnc2)cc1 [Example 125]
- Kd [6]: 110 nM
- IC50 ([1]; SKW3, values marked c: no inhibition observed up to highest dose): 1000 to 3000 nM
- Assay to Detect SKW3 Cells Binding to FIBRONECTIN IC50 ([2]; values marked c: no inhibition observed up to highest dose): No inh^c
- IC50 [3]: 400 nM
- ED50 [4]: ~90 mg/kg
- Cellular Toxicity Assay MTT LD50 [5]: >400 µM

- Kd [6]: 2350 nM
- melting point: 122 to 123 °C
Compound: COc1c(F)c(F)c(CC2(C)NC(=O)N(c3cc(Cl)cc(Cl)c3)C2=O)c(F)c1F (stereo not shown) [Example 61]
